Laboratory results reported in US20120202856A1, “SUBSTITUTED BENZIMDAZOLE DERIVATIVES USEFUL AS TRPM8 RECEPTOR MODULATORS” (priority 2011, published 2012).
Where “and” joins values, the source holds several entries; their conditions need not be identical. Equal entries are not always repeated. Structures can show the parent of a compound that is named as a salt. Where two headings read alike, the source gives them in different places.

Biological target: T1, canine TRPM8 (Canis lupus familiaris, UniProt Q1A7N1)
T1 construct: expressed in transfected cells
Experiment: In Vitro Canine TRPM8 Functional Assay (intracellular Ca2+ fluorescence, icilin activation, HEK293 cells)
Type: cell-based
Details: for inhibition at 0.2 µM: individually measured values; for IC50: HEK293 cells expressing canine TRPM8, icilin activation, individually measured values (batches/salt forms), read-out: IC50 (nM), in vitro TRP M8 Activity
In short: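 Inhibition of icilin-evoked calcium influx measured by Calcium 3 fluorescence (FLIPR or FDSS) in canine TRPM8 HEK293 cells. After basal subtraction, data expressed as percent of maximum; quadruplicate means fitted by sigmoidal dose–response to give IC50.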

[1] = HEK293, 0.2 μM test compound, read-out: % Inh (%) @0.2 μM, in vitro TRP M8 Activity
[2] = HEK293, read-out: % Inh (%) @0.2 μM, in vitro TRP M8 Activity, 0.2 μM test compound

T1 sequence (Q1A7N1 1-1104): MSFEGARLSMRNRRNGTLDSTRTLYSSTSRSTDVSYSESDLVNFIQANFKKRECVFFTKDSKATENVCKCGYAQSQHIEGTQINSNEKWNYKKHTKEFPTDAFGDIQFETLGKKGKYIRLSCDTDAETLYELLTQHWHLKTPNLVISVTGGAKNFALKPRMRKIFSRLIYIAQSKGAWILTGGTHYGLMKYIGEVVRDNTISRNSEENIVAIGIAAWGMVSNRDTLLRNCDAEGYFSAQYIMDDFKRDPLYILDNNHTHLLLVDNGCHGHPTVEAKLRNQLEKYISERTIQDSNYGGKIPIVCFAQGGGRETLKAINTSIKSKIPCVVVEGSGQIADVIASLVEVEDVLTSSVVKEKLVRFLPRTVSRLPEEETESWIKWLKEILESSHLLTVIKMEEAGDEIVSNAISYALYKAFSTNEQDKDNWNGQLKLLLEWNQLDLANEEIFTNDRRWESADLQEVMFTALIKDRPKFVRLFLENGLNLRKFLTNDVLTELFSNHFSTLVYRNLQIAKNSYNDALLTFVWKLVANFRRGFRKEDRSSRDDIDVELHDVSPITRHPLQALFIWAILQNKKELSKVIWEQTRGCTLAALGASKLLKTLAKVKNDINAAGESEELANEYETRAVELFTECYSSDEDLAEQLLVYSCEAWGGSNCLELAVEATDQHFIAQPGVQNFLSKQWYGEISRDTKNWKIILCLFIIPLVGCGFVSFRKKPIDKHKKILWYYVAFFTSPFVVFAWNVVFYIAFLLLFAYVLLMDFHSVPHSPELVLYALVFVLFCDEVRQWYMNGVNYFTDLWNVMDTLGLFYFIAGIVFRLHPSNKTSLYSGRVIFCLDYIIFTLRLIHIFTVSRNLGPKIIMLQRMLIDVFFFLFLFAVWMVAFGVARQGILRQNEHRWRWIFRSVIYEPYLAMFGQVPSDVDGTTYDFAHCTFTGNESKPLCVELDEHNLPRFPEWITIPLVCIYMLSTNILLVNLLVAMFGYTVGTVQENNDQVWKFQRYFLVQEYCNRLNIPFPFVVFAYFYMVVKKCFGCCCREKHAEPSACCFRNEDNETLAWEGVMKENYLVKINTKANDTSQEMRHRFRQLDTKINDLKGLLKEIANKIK

SMILES | inhibition at 0.2 µM [1] [%] | IC50 | inhibition at 0.2 µM [2] [%]
Cn1nc(C(C)(C)C)c(Cl)c1-c1nc2cc(-c3ccccc3C(F)(F)F)cc(C(F)(F)F)c2[nH]1 [Compound 129, 2-(5-tert-Butyl-4-chloro-2-methyl-2H-pyrazol-3-yl)-7-trifluoromethyl-5-(2-trifluoromethyl-phenyl)-1H-benzimidazole hydrochloride] | 99 | 6.2 nM and 4.1 nM | 
Cn1nc2c(c1-c1nc3cc(-c4ccccc4C(F)(F)F)cc(C(F)(F)F)c3[nH]1)CCC21CCCCC1 [Compound 189] | 99 | 10.6 nM | 
Cc1oc(C(C)(C)C)nc1-c1nc2cc(-c3c(F)cccc3C(F)(F)F)cc(C(F)(F)F)c2[nH]1 [Compound 158, 2-(2-tert-Butyl-5-methyl-oxazol-4-yl)-5-(2-fluoro-6-trifluoromethyl-phenyl)-7-trifluoromethyl-1H-benzimidazole hydrochloride] | 72 |  | 
Cc1c(C(C)(C)C)noc1-c1nc2cc(-c3c(F)cccc3F)ccc2[nH]1 [Compound 109, 2-(3-tert-Butyl-4-methyl-isoxazol-5-yl)-5-(2,6-difluoro-phenyl)-1H-benzimidazole hydrochloride] |  | 13.9 nM | 
CC(C)(C)c1cc(-c2nc3cc(-c4ccccc4OC(F)(F)F)cc(C(F)(F)F)c3[nH]2)on1 [Compound 143, 2-(3-tert-Butyl-isoxazol-5-yl)-5-(2-trifluoromethoxy-phenyl)-7-trifluoromethyl-1H-benzimidazole sodium salt] |  | 2.5 nM and 3.7 nM | 99
Cn1nc(C(C)(C)C)c(Cl)c1-c1nc2cc(-c3c(F)cccc3OC(F)(F)F)cc(C(F)(F)F)c2[nH]1 [Compound 126, 2-(5-tert-Butyl-4-chloro-2-methyl-2H-pyrazol-3-yl)-5-(2-fluoro-6-trifluoromethoxy-phenyl)-7-trifluoromethyl-1H-benzimidazole hydrochloride] | 99 | 3.9 nM and 3.5 nM | 
Cn1nc(C(C)(C)C)c(C#N)c1-c1nc2cc(-c3c(F)cccc3F)cc(Cl)c2[nH]1 [Compound 171, 3-tert-Butyl-5-[7-chloro-5-(2,6-difluoro-phenyl)-1H-benzimidazol-2-yl]-1-methyl-1H-pyrazole-4-carbonitrile sodium salt] | 100 | 8.2 nM | 
CC(C)Cc1cc(-c2nc3ccc(-c4ccccc4OC(F)(F)F)cc3[nH]2)on1 [Compound 23, 2-(3-Isobutylisoxazol-5-yl)-6-(2-trifluoromethoxyphenyl)-1H-benzimidazole hydrochloride] |  | 30 nM | 
Cn1nc2c(c1-c1nc3cc(-c4ccccc4OC(F)(F)F)ccc3[nH]1)CCCC2(C)C [Compound 31, 2,7,7-Trimethyl-3-[5-(2-trifluoromethoxyphenyl)-1H-benzimidazol-2-yl]-4,5,6,7-tetrahydro-2H-indazole sodium salt] |  | 84 nM | 
COc1cccc(OC)c1-c1ccc2[nH]c(-c3cc(C(C)(C)C)nn3C)nc2c1 [Compound 54, 2-(5-tert-Butyl-2-methyl-2H-pyrazol-3-yl)-5-(2,6-dimethoxy-phenyl)-1H-benzimidazole trifluoroacetic acid salt] |  | 3.1 nM | 
Cc1nc(C(C)(C)C)oc1-c1nc2cc(-c3ccccc3)cc(Cl)c2[nH]1 [Compound 180, 2-(2-tert-Butyl-4-methyl-oxazol-5-yl)-7-chloro-5-phenyl-1H-benzimidazole hydrochloride] | 6 |  | 
Cn1nc(C(C)(C)C)c(C#N)c1-c1nc2cc(-c3c(F)cccc3OC(F)(F)F)cc(Cl)c2[nH]1 [Compound 173, 3-tert-Butyl-5-[7-chloro-5-(2-fluoro-6-trifluoromethoxy-phenyl)-1H-benzimidazol-2-yl]-1-methyl-1H-pyrazole-4-carbonitrile sodium salt] | 100 | 10.7 nM | 
FC(F)(F)c1ccccc1-c1ccc2[nH]c(-c3cc(Br)no3)nc2c1 [Compound 42, 2-(3-Bromoisoxazol-5-yl)-5-(2-trifluoromethylphenyl)-1H-benzimidazole sodium salt] |  | 151 nM | 
Cn1nc(C(C)(C)C)cc1-c1nc2cc(-c3ccccc3Cl)ccc2[nH]1 [Compound 59, 2-(5-tert-Butyl-2-methyl-2H-pyrazol-3-yl)-5-(2-chloro-phenyl)-1H-benzimidazole trifluoroacetic acid salt] |  | 8.3 nM | 
Cn1nc(C(C)(C)C)c(C(F)(F)F)c1-c1nc2cc(-c3ccccc3Cl)cc(C(F)(F)F)c2[nH]1 [Compound 186, 2-(5-tert-Butyl-2-methyl-4-trifluoromethyl-2H-pyrazol-3-yl)-5-(2-chloro-phenyl)-7-trifluoromethyl-1H-benzimidazole sodium salt] | 99 | 20 nM | 
Cc1c(C(C)(C)C)nn(C)c1-c1nc2cc(-c3c(C(F)(F)F)cccc3C(F)(F)F)ccc2[nH]1 [Compound 97, 5-(2,6-Bis-trifluoromethyl-phenyl)-2-(5-tert-butyl-2,4-dimethyl-2H-pyrazol-3-yl)-1H-benzimidazole hydrochloride] |  | 6.9 nM | 

SMILES | inhibition at 0.2 µM [1] [%] | IC50 | inhibition at 0.2 µM [2] [%]
FC(F)(F)c1ccccc1-c1ccc2[nH]c(-c3cc(Cl)no3)nc2c1 [Compound 33, 2-(3-Chloroisoxazol-5-yl)-5-(2-trifluoromethylphenyl)-1H-benzimidazole sodium salt] |  | 145 nM | 
FC(F)(F)Oc1ccccc1-c1ccc2[nH]c(-c3cc(Br)no3)nc2c1 [Compound 43, 2-(3-Bromoisoxazol-5-yl)-5-(2-trifluoromethoxyphenyl)-1H-benzimidazole sodium salt] |  | 94.6 nM | 
Cn1nc2c(c1-c1nc3cc(-c4ccccc4C(F)(F)F)ccc3[nH]1)CCCC2(C)C [Compound 30, 2,7,7-Trimethyl-3-[5-(2-trifluoromethylphenyl)-1H-benzimidazol-2-yl]-4,5,6,7-tetrahydro-2H-indazole sodium salt] |  | 36 nM | 
Cc1c(C(C)(C)C)nn(C)c1-c1nc2cc(-c3c(F)cccc3F)ccc2[nH]1 [Compound 95, 2-(5-tert-Butyl-2,4-dimethyl-2H-pyrazol-3-yl)-5-(2,6-difluoro-phenyl)-1H-benzimidazole hydrochloride] |  | 5.7 nM | 
Cc1nc(C(C)(C)C)oc1-c1nc2cc(-c3ccccc3OC(F)(F)F)cc(Cl)c2[nH]1 [Compound 183, 2-(2-tert-Butyl-4-methyl-oxazol-5-yl)-7-chloro-5-(2-trifluoromethoxy-phenyl)-1H-benzimidazole hydrochloride] | 4 |  | 
Cc1c(C(C)(C)C)nn(C)c1-c1nc2cc(-c3c(F)cccc3OC(F)(F)F)ccc2[nH]1 [Compound 96, 2-(5-tert-Butyl-2,4-dimethyl-2H-pyrazol-3-yl)-5-(2-fluoro-6-trifluoromethoxy-phenyl)-1H-benzimidazole hydrochloride] |  | 6.6 nM | 
Cc1nc(C(C)(C)C)oc1-c1nc2cc(-c3ccccc3F)cc(Cl)c2[nH]1 [Compound 182, 2-(2-tert-Butyl-4-methyl-oxazol-5-yl)-7-chloro-5-(2-fluoro-phenyl)-1H-benzimidazole hydrochloride] | 26 |  | 
CC(C)(C)c1cc(-c2nc3cc(-c4c(F)cccc4F)cc(C(F)(F)F)c3[nH]2)on1 [Compound 140, 2-(3-tert-Butyl-isoxazol-5-yl)-5-(2,6-difluoro-phenyl)-7-trifluoromethyl-1H-benzimidazole sodium salt] |  | 4.5 nM and 7.4 nM | 100
CC(C)(C)c1cc(-c2nc3cc(-c4ccccc4F)cc(C(F)(F)F)c3[nH]2)on1 [Compound 139, 2-(3-tert-Butyl-isoxazol-5-yl)-5-(2-fluoro-phenyl)-7-trifluoromethyl-1H-benzimidazole sodium salt] |  | 5.6 nM and 12 nM | 99
COc1cccc(F)c1-c1ccc2[nH]c(-c3cnc(C(C)(C)C)n3C)nc2c1 [Compound 70, 2-(2-tert-Butyl-3-methyl-3H-imidazol-4-yl)-5-(2-fluoro-6-methoxy-phenyl)-1H-benzimidazole trifluoroacetic acid salt] |  | 134 nM | 
Cn1nc(C(C)(C)C)c(Cl)c1-c1nc2cc(-c3ccccc3OC(F)(F)F)ccc2[nH]1 [Compound 51, 2-(5-tert-Butyl-4-chloro-2-methyl-2H-pyrazol-3-yl)-5-(2-trifluoromethoxyphenyl)-1H-benzimidazole sodium salt] |  | 27 nM | 
Cn1nc(C(C)(C)C)cc1-c1nc2cc(-c3ccccc3F)ccc2[nH]1 [Compound 57, 2-(5-tert-Butyl-2-methyl-2H-pyrazol-3-yl)-5-(2-fluoro-phenyl)-1H-benzimidazole trifluoroacetic acid salt] |  | 14.6 nM and 20.7 nM | 
Cc1oc(-c2nc3cc(-c4ccccc4OC(F)(F)F)cc(C(F)(F)F)c3[nH]2)nc1C(C)(C)C [Compound 195, 2-(4-tert-Butyl-5-methyl-oxazol-2-yl)-5-(2-trifluoromethoxy-phenyl)-7-trifluoromethyl-1H-benzimidazole hydrochloride] | 46 |  | 
Cn1nc(C2CCC2)cc1-c1nc2cc(-c3ccccc3C(F)(F)F)ccc2[nH]1 [Compound 37, 2-(5-Cyclobutyl-2-methyl-2H-pyrazol-3-yl)-5-(2-trifluoromethyl-phenyl)-1H-benzimidazole sodium salt] |  | 55.9 nM | 
Cn1nc(C(C)(C)C)c(C(F)(F)F)c1-c1nc2cc(-c3ccccc3C(F)(F)F)cc(C(F)(F)F)c2[nH]1 [Compound 187, 2-(5-tert-Butyl-2-methyl-4-trifluoromethyl-2H-pyrazol-3-yl)-7-trifluoromethyl-5-(2-trifluoromethyl-phenyl)-1H-benzimidazole sodium salt] | 100 | 14.7 nM | 
